PMC5487684, “Safety, Pharmacokinetics, and Antiviral Activity of a Novel HIV Antiviral, ABX464, in Treatment-Naive HIV-Infected Subjects in a Phase 2 Randomized, Controlled Study” (Antimicrobial Agents and Chemotherapy, 2017)
Where two headings read alike, the source gives them in different places.

What was measured:
[1] = Plasma pharmacokinetics of ABX464 and ABX464-NGlc in HIV-infected subjects; type: in vivo, human; conditions: for AUC(0-inf) / Cmax / half-life / Tmax: human, plasma, po
Procedure: (§1) Plasma samples were analyzed for ABX464 and ABX464-NGlc using validated bioanalytical methods by Atlanbio (Saint Nazaire, France) according to good laboratory practices. Pharmacokinetic parameters were calculated by noncompartmental analysis (NCA), using Phoenix WinNonlin software (Pharsight Corporation) running on a personal computer. On day 1, the following PK parameters were generated: Cmax, the time to Cmax (Tmax), lag time (tlag), elimination rate constant (kel), area under the concentration-time curve (AUC) from time zero to time t (AUC0–t), AUC from time zero to infinity (AUC0–∞), apparent clearance (CL/F), and apparent volume of distribution (V/F). On the other days of PK assessment, only Cmax, Tmax, tlag, kel, and AUC0–t were generated. The secondary analysis concerned pharmacodynamic (PD) activity, as expressed by CD4 and CD8 levels and viral load across time. The HIV viral load was analyzed in the prequalified individual local study center laboratories. CD4 and CD8 cell counts were also determined in the local study center laboratories. With respect to the viral load, changes in the log-transformed viral load values between 24 h postdose and predose were calculated on each day, and a comparison between each dose level and pooled placebo data was made. Moreover, the rate of success (defined as a decrease in the viral load value of at least 0.5 log) was evaluated for each treatment (including placebo) and compared between treatments.

HIV = HIV viral load (HIV-1 RNA copies per milliliter) in treatment-naive HIV-infected patients; type: in vivo
Procedure: Safety assessments and laboratory tests were carried out according to the schedules described in Table S4 for groups dosed every day, every 3 days, and 3 times a day. Follow-up visits were scheduled for 7 days after the last dose and subsequently once every week in order to assess the elimination of the main ABX464 metabolite and to assess the viral load. Follow-up visits were terminated when the virus load was within 0.5 log of the baseline value or after 3 follow-up visits, whichever came first. Prior to the statistical analyses, AEs were coded using the Medical Dictionary for Regulatory Activities (MedDRA dictionary; last available version) in order to be tabulated by system organ class (SOC) and preferred term (PT). The AEs were analyzed according to the treatment emergence phase from the first study drug administration on day 1 up to 48 h after the last study drug administration. The number and percentage of subjects with at least one TEAE were tabulated by SOC and PT for each group and dose. The number of occurrences of TEAEs was also analyzed in the same way by SOC and PT for each group and dose, by grade of severity for each group and dose, and by level of causality to the study drug for each group and dose.
as §1
No formal sample size determination was done. The aim of the study was to obtain reliable and consistent data and to expose a limited number of subjects to ABX464. To achieve this aim, six subjects per group received ABX464. A mixed model analysis of covariance of the changes in the viral load compared to that at the baseline was conducted on log-transformed values. Baseline parameters and age were covariates, treatment groups were fixed effects, and subjects were random effects.

FC(F)(F)Oc1ccc(Nc2ccc3cccc(Cl)c3n2)cc1 [ABX464]
Concomitant food effect on relative bioavailability ([1]; fed vs fasted): substantial increase in the relative bioavailability
AUC(0-inf) ([1]; 50 mg, HIV-infected, single oral 50mg (fasted), N 7, read-out: AUC0-∞, GM): 42.8 ng·h/mL
AUC(0-inf) ([1]; 50 mg, HIV-infected, single oral 50mg (fasted), N 7, read-out: AUC0-∞, Mean): 55.4 ng·h/mL
Cmax ([1]; 50 mg, HIV-infected, single oral 50mg (fasted), N 7, read-out: Cmax, GM): 14.9 ng/mL
Cmax ([1]; 50 mg, HIV-infected, single oral 50mg (fasted), N 7, read-out: Cmax, Mean): 19.4 ng/mL
half-life ([1]; 50 mg, HIV-infected, single oral 50mg (fasted), N 7, read-out: t1/2, GM (converted)): 0.94 h
half-life ([1]; 50 mg, HIV-infected, single oral 50mg (fasted), N 7, read-out: t1/2, Mean (converted)): 0.96 h
Tmax ([1]; 50 mg, HIV-infected, single oral 50mg (fasted), N 7, read-out: tmax, GM): 1.8 h
Tmax ([1]; 50 mg, HIV-infected, single oral 50mg (fasted), N 7, read-out: tmax, Mean): 1.9 h
half-life ([1]; HIV-infected subjects, oral, read-out: half-life (t1/2) (converted)): ~1 h
Subjects demonstrating an antiviral response (HIV; 75 mg once a day): 16%
Subjects demonstrating an antiviral response (HIV; 100 mg once a day): 33%
Subjects demonstrating an antiviral response (HIV; 150 mg once a day): 66%
Mixed model analysis, RNA viral load Day 2 to Day 14, Treatment Group Estimate (HIV; ABX464 150 mg once a day vs. Placebo): -0.1559
Measurements demonstrating a 0.5 log10 decrease over the treatment period (HIV; ABX464-treated subjects): 49 measurements
Change in log10 no. of RNA copies/ml from that at the baseline (HIV; Group 1 (25 mg every 3 days, fasted), subject 102, day 4): −0.99 log10 no. of RNA copies/ml
Change in log10 no. of RNA copies/ml from that at the baseline (HIV; Group 1 (25 mg every 3 days, fasted), subject 102, day 5): −1.47 log10 no. of RNA copies/ml
Change in log10 no. of RNA copies/ml from that at the baseline (HIV; Group 1 (25 mg every 3 days, fasted), subject 102, day 7): −1.36 log10 no. of RNA copies/ml
Change in log10 no. of RNA copies/ml from that at the baseline (HIV; Group 1 (25 mg every 3 days, fasted), subject 102, day 8): −1.57 log10 no. of RNA copies/ml
Change in log10 no. of RNA copies/ml from that at the baseline (HIV; Group 1 (25 mg every 3 days, fasted), subject 102, day 10): −1.43 log10 no. of RNA copies/ml
Change in log10 no. of RNA copies/ml from that at the baseline (HIV; Group 1 (25 mg every 3 days, fasted), subject 102, day 11): −1.61 log10 no. of RNA copies/ml
Change in log10 no. of RNA copies/ml from that at the baseline (HIV; Group 1 (25 mg every 3 days, fasted), subject 102, day 13): −1.4 log10 no. of RNA copies/ml
Change in log10 no. of RNA copies/ml from that at the baseline (HIV; Group 1 (25 mg every 3 days, fasted), subject 102, day 14): −1.51 log10 no. of RNA copies/ml
Change in log10 no. of RNA copies/ml from that at the baseline (HIV; Group 1 (25 mg every 3 days, fasted), subject 105, day 14): −0.5 log10 no. of RNA copies/ml
Change in log10 no. of RNA copies/ml from that at the baseline (HIV; Group 1 (25 mg every 3 days, fasted), subject 105, day 16): −0.52 log10 no. of RNA copies/ml
Change in log10 no. of RNA copies/ml from that at the baseline (HIV; Group 1 (25 mg every 3 days, fasted), subject 105, day 17): −0.65 log10 no. of RNA copies/ml
Change in log10 no. of RNA copies/ml from that at the baseline (HIV; Group 1 (25 mg every 3 days, fasted), subject 106, day 5): −0.72 log10 no. of RNA copies/ml
Change in log10 no. of RNA copies/ml from that at the baseline (HIV; Group 1 (25 mg every 3 days, fasted), subject 106, day 11): −0.56 log10 no. of RNA copies/ml
Change in log10 no. of RNA copies/ml from that at the baseline (HIV; Group 1 (25 mg every 3 days, fasted), subject 106, day 13): −0.62 log10 no. of RNA copies/ml
Change in log10 no. of RNA copies/ml from that at the baseline (HIV; Group 1 (25 mg every 3 days, fasted), subject 106, day 16): −0.74 log10 no. of RNA copies/ml
Change in log10 no. of RNA copies/ml from that at the baseline (HIV; Group 1 (25 mg every 3 days, fasted), subject 106, day 17): −0.51 log10 no. of RNA copies/ml
Change in log10 no. of RNA copies/ml from that at the baseline (HIV; Group 1 (25 mg every 3 days, fasted), subject 106, day 19): −0.61 log10 no. of RNA copies/ml
Change in log10 no. of RNA copies/ml from that at the baseline (HIV; Group 2 (25 mg q.d., fasted), subject 201, day 14): −0.54 log10 no. of RNA copies/ml
Change in log10 no. of RNA copies/ml from that at the baseline (HIV; Group 4 (50 mg t.i.d., fed), subject 2007, day 10): −0.62 log10 no. of RNA copies/ml
Change in log10 no. of RNA copies/ml from that at the baseline (HIV; Group 4 (50 mg t.i.d., fed), subject 2009, day 10): −0.72 log10 no. of RNA copies/ml
Change in log10 no. of RNA copies/ml from that at the baseline (HIV; Group 4 (50 mg t.i.d., fed), subject 2009, day 14): −1.23 log10 no. of RNA copies/ml
Change in log10 no. of RNA copies/ml from that at the baseline (HIV; Group 4 (50 mg t.i.d., fed), subject 2009, day 18): −1.39 log10 no. of RNA copies/ml
Change in log10 no. of RNA copies/ml from that at the baseline (HIV; Group 5 (75 mg q.d., fed), subject 605, day 2): −0.71 log10 no. of RNA copies/ml
Change in log10 no. of RNA copies/ml from that at the baseline (HIV; Group 5 (75 mg q.d., fed), subject 605, day 4): −0.77 log10 no. of RNA copies/ml
Change in log10 no. of RNA copies/ml from that at the baseline (HIV; Group 5 (75 mg q.d., fed), subject 605, day 5): −0.76 log10 no. of RNA copies/ml
Change in log10 no. of RNA copies/ml from that at the baseline (HIV; Group 5 (75 mg q.d., fed), subject 605, day 7): −0.89 log10 no. of RNA copies/ml
Change in log10 no. of RNA copies/ml from that at the baseline (HIV; Group 5 (75 mg q.d., fed), subject 605, day 8): −0.83 log10 no. of RNA copies/ml
Change in log10 no. of RNA copies/ml from that at the baseline (HIV; Group 5 (75 mg q.d., fed), subject 605, day 10): −1.06 log10 no. of RNA copies/ml
Change in log10 no. of RNA copies/ml from that at the baseline (HIV; Group 5 (75 mg q.d., fed), subject 605, day 11): −1.05 log10 no. of RNA copies/ml
